# Columns and labels:
# Assay type in all cases: in vivo
# soybean (Glycine max) [1] = assay: Test Example 2 upland soil treatment, crop phytotoxicity; details: Table 5, upland soil treatment, index 0-5
# Summary of the method: (§1)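 Seeds are sown into upland soil and covered by roughly 1 cm of soil, then the compound, formulated as a wettable powder and diluted with water, is applied uniformly to the soil surface the following day at 1 kg active ingredient per hectare. Herbicidal effect or phytotoxicity is graded 0 to 5 after 21 days.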
# [2] = system: wheat (Triticum aestivum); assay: as above; details: Table 5, upland soil treatment, index 0-5
# Summary of the method: as §1
# Setaria viridis [3] = assay: Test Example 1 upland field foliage treatment; details: Table 4, upland field foliage treatment, index 0-5
# Summary of the method: (§2)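 Post-emergence foliar spray, 1 kg a.i./ha, wettable powder diluted in water, applied 14 d after sowing in upland soil. Rating 21 d post-application, 0–5 scale: 5 ≥90%, 4 70–<90%, 3 50–<70%, 2 30–<50%, 1 10–<30%, 0 <10% effect or injury.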
# Stellaria media [4] = assay: Test Example 1 upland field foliage treatment; details: Table 4, upland field foliage treatment, index 0-5
# Summary of the method: as §2
# Digitaria adscendens [5] = assay: Test Example 1 upland field foliage treatment; details: Table 4, upland field foliage treatment, index 0-5
# Summary of the method: as §2
# Chenopodium album [6] = assay: Test Example 1 upland field foliage treatment; details: Table 4, upland field foliage treatment, index 0-5
# Summary of the method: as §2
# Rice (Oryza sativa) = assay: Test Example 3 paddy field treatment, crop phytotoxicity; details: active ingredient 1 kg per hectare, index 0-5; for Herbicidal activity OS (phytotoxicity to rice): paddy field treatment, transplanted rice Koshihikari, wettable powder, 21st day after the dropping; for Herbicidal activity (phytotoxicity) OS: Table 6, paddy field treatment, transplanted rice, 21st day after dropping
# Summary of the method: (§3)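 Scoring used a 0–5 scale of herbicidal effect or phytotoxicity, from <10% to ≥90%, taken 21 days after treatment. Treatment was 1 kg a.i./ha as diluted wettable powder dripped onto 4 cm-deep flooded pots sown with the weeds, 10 days after transplanting two-leaf Koshihikari rice.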
# Ammannia multiflora = assay: Test Example 3 paddy field treatment; details: active ingredient 1 kg per hectare, index 0-5
# Summary of the method: as §3
# Scirpus juncoides = assay: Test Example 3 paddy field treatment; details: active ingredient 1 kg per hectare, index 0-5
# Summary of the method: as §3
# Monochoria vaginalis = assay: Test Example 3 paddy field treatment; details: active ingredient 1 kg per hectare, index 0-5
# Summary of the method: as §3
# Echinochloa crusgalli = assay: Test Example 3 paddy field treatment; details: active ingredient 1 kg per hectare, index 0-5
# Summary of the method: as §3
# Setaria viridis [7] = assay: Test Example 2 upland soil treatment; details: Table 5, upland soil treatment, index 0-5
# Summary of the method: as §1
# Stellaria media [8] = assay: Test Example 2 upland soil treatment; details: Table 5, upland soil treatment, index 0-5
# Summary of the method: as §1
# Digitaria adscendens [9] = assay: Test Example 2 upland soil treatment; details: Table 5, upland soil treatment, index 0-5
# Summary of the method: as §1
# Chenopodium album [10] = assay: Test Example 2 upland soil treatment; details: Table 5, upland soil treatment, index 0-5
# Summary of the method: as §1
# soybean (Glycine max) [11] = assay: Test Example 1 upland field foliage treatment, crop phytotoxicity; details: Table 4, upland field foliage treatment, index 0-5
# Summary of the method: as §2
# [12] = system: wheat (Triticum aestivum); assay: as above; details: Table 4, upland field foliage treatment, index 0-5
# Summary of the method: as §2
# [13] = paddy field treatment, wettable powder, 21st day after the dropping
# [14] = Table 6, paddy field treatment, 21st day after dropping
Compound,Herbicidal activity (phytotoxicity) GM: Soybean (Glycine max) (soybean (Glycine max) [1]),Herbicidal activity (phytotoxicity) TA: Wheat (Triticum aestivum) [2],Herbicidal activity SV: Setaria viridis (Setaria viridis [3]),Herbicidal activity SM: Stellaria media (Stellaria media [4]),Herbicidal activity DA: Digitaria adscendens (Digitaria adscendens [5]),Herbicidal activity CA: Chenopodium album (Chenopodium album [6]),Herbicidal activity OS (phytotoxicity to rice) (Rice (Oryza sativa)),Herbicidal activity AM (Ammannia multiflora; [13]),Herbicidal activity SJ (Scirpus juncoides; [13]),Herbicidal activity MV (Monochoria vaginalis; [13]),Herbicidal activity EC (Echinochloa crusgalli; [13]),Herbicidal activity SV: Setaria viridis (Setaria viridis [7]),Herbicidal activity SM: Stellaria media (Stellaria media [8]),Herbicidal activity DA: Digitaria adscendens (Digitaria adscendens [9]),Herbicidal activity CA: Chenopodium album (Chenopodium album [10]),Herbicidal activity (phytotoxicity) GM: Soybean (Glycine max) (soybean (Glycine max) [11]),Herbicidal activity (phytotoxicity) TA: Wheat (Triticum aestivum) [12],Herbicidal activity (phytotoxicity) OS (Rice (Oryza sativa)),Herbicidal activity AM (Ammannia multiflora; [14]),Herbicidal activity SJ (Scirpus juncoides; [14]),also measured
CNC(=O)C(Cn1cc(C)c(-c2ccc(Cl)cc2)n1)=NOC [Compound 47],"0 (herbicidal effect of not less than 0% and less than 10%, or phytotoxicity of 0% or more and less than 10%)","0 (herbicidal effect of not less than 0% and less than 10%, or phytotoxicity of 0% or more and less than 10%)","5 (herbicidal effect of not less than 90%, or phytotoxicity of 90% or more)","5 (herbicidal effect of not less than 90%, or phytotoxicity of 90% or more)","5 (herbicidal effect of not less than 90%, or phytotoxicity of 90% or more)","5 (herbicidal effect of not less than 90%, or phytotoxicity of 90% or more)","0 (herbicidal effect of not less than 0% and less than 10%, or phytotoxicity of 0% or more and less than 10%)","5 (herbicidal effect of not less than 90%, or phytotoxicity of 90% or more)","5 (herbicidal effect of not less than 90%, or phytotoxicity of 90% or more)","5 (herbicidal effect of not less than 90%, or phytotoxicity of 90% or more)","5 (herbicidal effect of not less than 90%, or phytotoxicity of 90% or more)","5 (herbicidal effect of not less than 90%, or phytotoxicity of 90% or more)","5 (herbicidal effect of not less than 90%, or phytotoxicity of 90% or more)","5 (herbicidal effect of not less than 90%, or phytotoxicity of 90% or more)","5 (herbicidal effect of not less than 90%, or phytotoxicity of 90% or more)","0 (herbicidal effect of not less than 0% and less than 10%, or phytotoxicity of 0% or more and less than 10%)","0 (herbicidal effect of not less than 0% and less than 10%, or phytotoxicity of 0% or more and less than 10%)",,,,
CNC(=O)C(Cn1cc(C)c(-c2ccc(Oc3ccccc3)cc2)n1)=NOC [Compound 53],"0 (herbicidal effect of not less than 0% and less than 10%, or phytotoxicity of 0% or more and less than 10%)","0 (herbicidal effect of not less than 0% and less than 10%, or phytotoxicity of 0% or more and less than 10%)","4 (herbicidal effect of not less than 70% and less than 90%, or phytotoxicity of 70% or more and less than 90%)","4 (herbicidal effect of not less than 70% and less than 90%, or phytotoxicity of 70% or more and less than 90%)","5 (herbicidal effect of not less than 90%, or phytotoxicity of 90% or more)","5 (herbicidal effect of not less than 90%, or phytotoxicity of 90% or more)","0 (herbicidal effect of not less than 0% and less than 10%, or phytotoxicity of 0% or more and less than 10%)","5 (herbicidal effect of not less than 90%, or phytotoxicity of 90% or more)","5 (herbicidal effect of not less than 90%, or phytotoxicity of 90% or more)","5 (herbicidal effect of not less than 90%, or phytotoxicity of 90% or more)","5 (herbicidal effect of not less than 90%, or phytotoxicity of 90% or more)","3 (herbicidal effect of not less than 50% and less than 70%, or phytotoxicity of 50% or more and less than 70%)","4 (herbicidal effect of not less than 70% and less than 90%, or phytotoxicity of 70% or more and less than 90%)","5 (herbicidal effect of not less than 90%, or phytotoxicity of 90% or more)","4 (herbicidal effect of not less than 70% and less than 90%, or phytotoxicity of 70% or more and less than 90%)","0 (herbicidal effect of not less than 0% and less than 10%, or phytotoxicity of 0% or more and less than 10%)","0 (herbicidal effect of not less than 0% and less than 10%, or phytotoxicity of 0% or more and less than 10%)",,,,
CNC(=O)C(Cn1cc(C)c(-c2ccc(F)cc2F)n1)=NOC [Compound 56],"1 (herbicidal effect of not less than 10% and less than 30%, or phytotoxicity of 10% or more and less than 30%)","0 (herbicidal effect of not less than 0% and less than 10%, or phytotoxicity of 0% or more and less than 10%)","5 (herbicidal effect of not less than 90%, or phytotoxicity of 90% or more)","5 (herbicidal effect of not less than 90%, or phytotoxicity of 90% or more)","5 (herbicidal effect of not less than 90%, or phytotoxicity of 90% or more)","5 (herbicidal effect of not less than 90%, or phytotoxicity of 90% or more)",,,,,,"5 (herbicidal effect of not less than 90%, or phytotoxicity of 90% or more)","5 (herbicidal effect of not less than 90%, or phytotoxicity of 90% or more)","5 (herbicidal effect of not less than 90%, or phytotoxicity of 90% or more)","5 (herbicidal effect of not less than 90%, or phytotoxicity of 90% or more)","0 (herbicidal effect of not less than 0% and less than 10%, or phytotoxicity of 0% or more and less than 10%)","0 (herbicidal effect of not less than 0% and less than 10%, or phytotoxicity of 0% or more and less than 10%)","0 (herbicidal effect of not less than 0% and less than 10%, or phytotoxicity of 0% or more and less than 10%)","5 (herbicidal effect of not less than 90%, or phytotoxicity of 90% or more)","5 (herbicidal effect of not less than 90%, or phytotoxicity of 90% or more)","Herbicidal activity MV (Monochoria vaginalis; [14]): 5 (herbicidal effect of not less than 90%, or phytotoxicity of 90% or more); Herbicidal activity EC (Echinochloa crusgalli; [14]): 5 (herbicidal effect of not less than 90%, or phytotoxicity of 90% or more)"
CNC(=O)C(Cn1cc(C)c(-c2cc(F)ccc2F)n1)=NOC [Compound 57],"0 (herbicidal effect of not less than 0% and less than 10%, or phytotoxicity of 0% or more and less than 10%)","0 (herbicidal effect of not less than 0% and less than 10%, or phytotoxicity of 0% or more and less than 10%)","5 (herbicidal effect of not less than 90%, or phytotoxicity of 90% or more)","5 (herbicidal effect of not less than 90%, or phytotoxicity of 90% or more)","5 (herbicidal effect of not less than 90%, or phytotoxicity of 90% or more)","5 (herbicidal effect of not less than 90%, or phytotoxicity of 90% or more)",,,,,,"5 (herbicidal effect of not less than 90%, or phytotoxicity of 90% or more)","5 (herbicidal effect of not less than 90%, or phytotoxicity of 90% or more)","5 (herbicidal effect of not less than 90%, or phytotoxicity of 90% or more)","5 (herbicidal effect of not less than 90%, or phytotoxicity of 90% or more)","0 (herbicidal effect of not less than 0% and less than 10%, or phytotoxicity of 0% or more and less than 10%)","0 (herbicidal effect of not less than 0% and less than 10%, or phytotoxicity of 0% or more and less than 10%)","0 (herbicidal effect of not less than 0% and less than 10%, or phytotoxicity of 0% or more and less than 10%)","5 (herbicidal effect of not less than 90%, or phytotoxicity of 90% or more)","5 (herbicidal effect of not less than 90%, or phytotoxicity of 90% or more)","Herbicidal activity MV (Monochoria vaginalis; [14]): 5 (herbicidal effect of not less than 90%, or phytotoxicity of 90% or more); Herbicidal activity EC (Echinochloa crusgalli; [14]): 5 (herbicidal effect of not less than 90%, or phytotoxicity of 90% or more)"

# Reference: patent publication US7192906B2, “Substituted pyrazole derivatives, production process thereof, and herbicide compositions containing the derivatives” (SDS Biotech K.K., priority 2001, dated 2007)
